According to the METLIN SMRT retention time set (Domingo-Almenara et al. 2019):

experiment: gradient 5% acetonitrile 3 min, to 50% in 2 min, to 85% in 15 min, held 3 min, 100 µL/min; conditions: column: Zorbax Extend-C18 2.1 x 50 mm; eluents: water / acetonitrile, 0.1% formic acid
Outline: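 Each retention time is based on an adduct peak selected computationally and verified by manual inspection. Measurements used HPLC–quadrupole time-of-flight mass spectrometry in positive and negative ionization mode on mixtures of ~100 pure standards. Chromatography ran on a Zorbax Extend-C18 column (2.1 × 50 mm, 1.8 μm) at 100 μL/min with water and acetonitrile, each containing 0.1% formic acid, and dead and dwell volumes of 40 μL and 900 μL.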

| RP-LC retention time [s] | Compound |
| --- | --- |
| 664 | CCOC(=O)C1CCN(Cc2nc(-c3ccc(N4CCCCC4)nc3)no2)CC1 |
| 636 | Cc1cc(N2CCN(C(=O)c3ccc(Br)o3)CC2)nc(N2CCCC2)n1 |
| 761 | Cc1ccc(CNC(=O)N2CCC3(CC2)NC(=O)c2ccc(F)cc2N3C)cc1 |
| 873 | CC(=O)Nc1ccc2c(c1)CN(C(=O)c1c(F)cccc1F)C(C(=O)N1CCCC1)C2 (stereo not given) |
| 833 | COc1cccc(N2CCN(C(=O)Cc3csc4nc(-c5ccccc5)cn34)CC2)c1 |
| 778 | COC(=O)c1nc(NC(=O)Cn2nc3c(cc2=O)CCCCC3)sc1C |
| 1110 | Cc1ccc(NC(=O)Cn2c(=O)cc(-c3nc(C(C)C)no3)c3ccccc32)c(Cl)c1 |
| 898 | COc1cccc(-c2noc(N3CCCC3)n2)c1 |
| 856 | Cc1cccc(CN2C(=O)CN(S(C)(=O)=O)CC2(C)C(=O)NCc2ccc(F)cc2)c1 (stereo not given) |
| 852 | CCOC(=O)c1ccc(NC(=O)Cn2nc3c(Oc4ccccc4)nccn3c2=O)cc1 |
| 714 | COCCn1c(=O)c2cc(C(=O)Nc3ccccc3)nn2c2ccccc21 |
| 986 | O=c1c2cc(-c3ccc4c(c3)OCO4)nn2ccn1Cc1ccc(F)cc1 |
| 804 | CCOC(=O)CNC(=O)N1CCCC1c1ccccc1Cl (stereo not given) |
| 667 | CCCNC(=O)C1CCN(c2ccc(SCC(=O)NCc3ccc(F)cc3)nn2)CC1 |
| 605 | CC(C)CC(=O)Nc1n[nH]c2c1CN(C(=O)C1CCN(C)CC1)C2(C)C |
| 578 | CCOc1cccc(CN2C[C@@H]3C(=O)N(CCOC)C(=O)[C@@H]3C2)c1 |
| 545 | CCC(=O)N1CCC(c2noc(CO)n2)C1 (stereo not given) |
| 854 | O=C(C1=NN(Cc2ccc(Cl)cc2)c2ccccc2S1(=O)=O)N1CCOCC1 |
| 750 | CC(C)N1C(=O)Cc2ccccc2C1C(=O)NCc1cccs1 (stereo not given) |
| 925 | CC(C)(C)NC(=O)N(Cc1ccsc1)CC(F)(F)F |
| 731 | CCc1nncn1C1CCN(S(=O)(=O)c2ccc(C)c(C)c2)CC1 |
| 908 | CC1(C)CC(=O)C2=C(C1)N(CC1CCCO1)C(=O)C2(NC(=O)c1ccccc1F)C(F)(F)F (stereo not given) |
| 803 | Cc1cccc(CSc2nnc(CNC(=O)c3ccc(S(=O)(=O)N(C)C)cc3)o2)c1 |

| RP-LC retention time [s] | Compound |
| --- | --- |
| 1170 | COc1ccc(OCc2nc(-c3ccc4c(c3)nc(C)c(=O)n4C3CCCC3)no2)cc1 |
| 694 | Cn1c(-c2ccccc2)nn(CCNC(=O)c2cc3ccccc3o2)c1=O |
| 810 | COCCCNC(=O)N1CCCC1c1nc(-c2cccc(C)c2)no1 (stereo not given) |
| 638 | N#Cc1cccc(NC(=O)Cn2nc3n(c2=O)CCCC3)c1 |
| 1160 | COc1ccc(/C=C/C(=O)c2c(OC)cc(O)cc2OC)cc1 |
| 682 | CC1CCCN(C(=O)c2nc(-c3ccnc(N4CCCC4)c3)no2)C1 (stereo not given) |
| 690 | O=C([C@@H]1C[C@H](F)CN1C(=O)Nc1ccc(F)cc1)N1CCCCC1 |
| 956 | CCS(=O)(=O)N1CC(=O)N(c2cccc(F)c2)C(C)(C(=O)NC2CCCCCCC2)C1 (stereo not given) |
| 735 | CCn1c(=O)sc2cc(S(=O)(=O)N3CCC(C(=O)Nc4ccc(C)cn4)CC3)ccc21 |
| 827 | CC1=C(c2ccccc2)S(=O)(=O)N=C1N1CCCN(C(=O)c2cc(F)ccc2F)CC1 |
| 1020 | CC(Oc1ccc(C(C)(C)C)cc1)C(=O)Nc1ccnn1Cc1ccco1 (stereo not given) |
| 781 | CN(Cc1cccnc1Oc1ccccc1)C(=O)c1cccn1C |
| 877 | CCc1cccc(NC(=O)C2CCCN(S(=O)(=O)c3c[nH]c(C(=O)N4CCCC4)c3)C2)c1 (stereo not given) |
| 705 | CCn1cc(CCNC(=O)Nc2c(C)cccc2C)c2cccnc21 |
| 781 | O=C1[C@H]2CN(Cc3ccccc3F)C[C@H]2C(=O)N1CCc1ccccc1 |
| 568 | CCN1CCN(c2ncc3c(n2)CCN(Cc2ccc(Br)s2)C3)CC1 |
| 800 | CCc1cnc2c(c1SCC(=O)N(C)c1ccccc1)c(=O)n(C)c(=O)n2C |
| 787 | CC(C)C(=O)Nc1nc(-c2ccc3c(c2)N(C)C(=O)CO3)cs1 |
| 880 | CN1C(=O)C(C)(C)COc2cc(NS(=O)(=O)Cc3cccc(Cl)c3)ccc21 |
| 768 | COc1cccc(/C=C/c2nccc3ccccc23)c1OC |
| 700 | CCCCN1CC(c2nc3ccccc3n2CC(=O)N(C)c2ccccc2)CC1=O (stereo not given) |
| 750 | Cc1cccc2nc(-c3ccc(Cl)cc3)c(Nc3ccc4c(c3)OCO4)n12 |
| 916 | CCc1nnc(-c2cn(CC(=O)Nc3cc(Cl)c(OC)cc3OC)c3ccccc23)o1 |

| RP-LC retention time [s] | Compound |
| --- | --- |
| 726 | COc1ccc(N2C=C(C(=O)N3CCCC3)S(=O)(=O)c3ccccc32)cc1OC |
| 849 | CCCn1cc(CCNC(=O)Nc2cc(F)ccc2F)c2cccnc21 |
| 630 | CCOC(=O)c1c(C)n(C)c2ccc(OCC(O)CN3CCOCC3)cc12 (stereo not given) |
| 692 | CCC(C(=O)NCCCN1CCCC1=O)n1c2ccccc2c2cnn(C)c(=O)c21 (stereo not given) |
| 589 | COc1ccc(CN2C[C@@H]3C(=O)N(CCCN4CCCC4=O)C(=O)[C@@H]3C2)cc1 |
| 638 | COc1ccc(-n2cc(C(=O)O)nn2)cc1OC |
| 807 | O=C(NC1CCCCC1)c1ccc2c(c1)NC(=O)C1CCCCN21 (stereo not given) |
| 1130 | O=c1c2cc3c(cc2nc(SCc2nc(-c4ccc(F)cc4)no2)n1CC1CCCO1)OCO3 (stereo not given) |
| 936 | CC(C)CNC(=O)c1cn(-c2ccc(S(=O)(=O)N3CCCC(C)C3)cn2)cn1 (stereo not given) |
| 680 | CN1C(=O)c2cccn2CC1CNS(=O)(=O)c1cccc2nsnc12 (stereo not given) |
| 865 | O[Si](CCCN1CCCCC1)(c1ccc(F)cc1)C1CCCCC1 (stereo not given) |
| 899 | CCc1nc(OCC(=O)Nc2ccc(Cl)cc2F)c2ccccc2n1 |
| 860 | COc1ccc(NC(=O)C2CN(S(C)(=O)=O)CC23CCCCC3)c(OC)c1 (stereo not given) |
| 1210 | Cc1ccc(CS(=O)(=O)N2CCc3nc(-c4ccc(Cl)cc4)ncc3C2)cc1 |
| 736 | Cc1cc(N(C)C)nc(N2CCN(C(=O)c3ccc(C(C)(C)C)cc3)CC2)n1 |
| 705 | CCn1cc(CCNC(=O)Nc2cc(C)cc(C)c2)c2cccnc21 |
| 1080 | CCCn1c(=O)c(C)nc2cc(-c3noc(-c4ccsc4)n3)ccc21 |
| 590 | Cc1noc(C2CN(CC(=O)N3CCN(c4ccc(Cl)cc4)CC3)C2)n1 |
| 702 | CCc1nc2nccc(-c3ccc(OC)c(OC)c3)n2n1 |
| 1020 | CCc1nn2c(CNS(=O)(=O)c3ccc4c(c3)CCC4)c(-c3ccccc3)nc2s1 |
| 703 | Brc1ccc(-c2ccc(CNCC3CCCO3)o2)cc1 (stereo not given) |
| 812 | Cc1cc(C(=O)N2CCCCC2)c2c(=O)n(CC(=O)N(C)c3ccccc3)c(=O)n(C)c2n1 |
| 735 | CCCNc1cc(N2CCCC(CCC(=O)Nc3ccccc3CC)C2)ncn1 (stereo not given) |

| RP-LC retention time [s] | Compound |
| --- | --- |
| 662 | Cn1cc(S(=O)(=O)N2CCC(C(=O)Nc3nccs3)CC2)cc1C(=O)N1CCCC1 |
| 629 | COc1cc(C2CC(=O)c3c(C)nc(N4CCN(C)CC4)nc3C2)cc(OC)c1OC (stereo not given) |
| 808 | O=C(Nc1ccc(N2CCN(C3CCCCC3)C2=O)nc1)c1ccc2c(c1)OCO2 |
| 607 | Cc1ccc(OCC(O)CN2CCN(CC(O)COC(C)C)CC2)c(C(C)(C)C)c1 (stereo not given) |
| 628 | CCc1nncn1C1CCN(C(=O)c2cc(F)ccc2Cl)CC1 |
| 1160 | O=S(=O)(c1ccc(-c2noc(-c3ccc(Cl)cc3)n2)cc1)N1CCOCC1 |
| 929 | COC(=O)C1=CN(c2ccc(F)c(Cl)c2)c2ccc(F)cc2S1(=O)=O |
| 888 | CCCN1CCN(c2cc(C(=O)O)c3cc(NC(=O)c4ccc(F)cc4)ccc3n2)CC1 |
| 730 | Nc1ccc(C(=O)C(=O)c2ccc(N)cc2)cc1 |
| 749 | CC(=O)N1CCc2cc(N3CC(C(=O)Nc4cc(F)ccc4Cl)CC3=O)ccc21 (stereo not given) |
| 668 | Cc1cccc(Sc2nccnc2N2CCC(C(=O)NCCN3CCOCC3)CC2)c1 |
| 883 | CNC(=O)C1CCCN(C(=O)Nc2ccc(NC(=O)Nc3ccc(C)cc3)cc2)C1 (stereo not given) |
| 760 | CC(C)c1noc(-c2ccn3c(CC(=O)NC4CCCCC4)nnc3c2)n1 |
| 718 | COCC(=O)N1N=C(c2cccc(NS(C)(=O)=O)c2)CC1c1ccccc1F (stereo not given) |
| 814 | CC1=C(c2ccccc2)S(=O)(=O)N=C1N1CCCN(C(=O)Nc2cccc(C#N)c2)CC1 |
| 688 | Cc1cccc(C(=O)N2CC(C)C(=O)Nc3ccccc32)c1 (stereo not given) |
| 573 | CC(C)N1CCN(C(=O)C2CC(=O)N(CCc3ccccc3)C2)CC1 (stereo not given) |
| 1380 | Cc1ccc(-c2noc(-c3sccc3NC(=O)c3ccnn3C)n2)cc1 |
| 832 | O=C(Nc1ccc(OCc2nnc(-c3ccccc3)o2)cc1)c1cnccn1 |
| 798 | Cc1oc(C2CCN(S(=O)(=O)c3cccc(F)c3)CC2)nc1C(=O)N(C)C |
| 800 | Cc1ccc(Nc2nc(C)cc3nn(CC(=O)Nc4ccc(N(C)C)cc4)c(=O)n23)cc1 |
